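Five concentrations, 48 hours, 96-well plates. GI50 is the concentration that inhibits growth by half. TGI: total growth inhibition.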

Twelve compounds from PubChem BioAssay (NCI) can be followed below.

Common to all, as to experiment: inhibition of tumour cell growth, NCI panel, 48 h
Assay [1] relates to CCRF-CEM leukemia.
Assay [2] has as its system HCT-116 colon.
Assay [3] has as its system KM12 colon.
The test system of assay [4] is NCI-H460 lung.
Assay [5] relates to RXF 393 renal.
Assay [6] concerns SNB-75 CNS.
Assay [7] deals with TK-10 renal.
Assay [8] relates to UACC-257 melanoma.
The subject of assay [9] is DU-145 prostate.
For assay [10], the system named is MDA-MB-435.

Take `OCCCc1cnco1`: the TGI in assay [1], in [2], in assay [3], in [4], in assay [5] and in assay [6] was > 100 µM in each case. Also, the TGI in assay [7] and in [8] was > 100 µM throughout.
As to `CC(=O)N(CCN1C(=O)c2ccccc2C1=O)CCN1C(=O)c2ccccc2C1=O`, the TGI in [1], in assay [2], in [3], in assay [4], in assay [5] and in [6] was > 100 µM throughout. Also, the TGI in [7] and in assay [8] was > 100 µM each time.
In the case of `C=C1C(=O)c2cc3c(cc2C(c2cc(OC)c(OC)c(OC)c2)[C@@H]1C(=O)O)OCO3` (stereo partly drawn), the TGI was > 100 µM in assay [1]; > 100 µM in assay [2]; > 100 µM in assay [3]; > 100 µM in assay [4]; > 100 µM in assay [5]; 61.1 µM in assay [6]. In addition, the TGI in [7] and in assay [8] was > 100 µM in each case.
As for `O=C(NS(=O)(=O)c1ccc(NC[C@H]2COCCO2)c([N+](=O)[O-])c1)c1ccc(N2CCN(CC3=C(c4ccc(Cl)cc4)CC4(CCC4)CC3)CC2)cc1Oc1cnc2[nH]ccc2c1`, the GI50 was 2.69 µM in assay [1]; 3.57 µM in [9]; 2.69 µM in assay [2]; 2.21 µM in assay [3]; 2.15 µM in assay [4]; 1.32 µM in [5]. Moreover, the GI50 in [6] is 1.76 µM; in [7], 2.29 µM; in [8], 2.07 µM. In addition, the TGI in assay [1] is > 100 µM; in assay [9], 70.6 µM; in [2], 12.5 µM; in assay [3], 5.11 µM; in [4], 6.12 µM; in [5], 2.76 µM. In addition, the TGI amounted to 6.31 µM in assay [6], 7.27 µM in assay [7] and 4.57 µM in [8].
On to `CC(=O)OCC1OC([Se-])C(OC(C)=O)C(OC(C)=O)C1OC(C)=O.N#CCC[PH+](CCC#N)CCC#N.[Au+]` (stereo not drawn), for which the GI50 was 3.46 µM in assay [1]; 3.85 µM in assay [2]; 10.3 µM in assay [3]; 4.95 µM in [4]; 3.14 µM in [5]; 21.3 µM in assay [6]. Moreover, the results for the GI50 in assay [7] and in assay [8] were 14.2 µM and 5.93 µM, respectively. Besides, the TGI in assay [1] is 27.3 µM; in [2] it was > 50.2 µM; in [3] it was > 74.5 µM; in [4] it was 29.6 µM; in assay [5], > 100 µM; in assay [6] it was > 100 µM. For the same compound, the TGI turned out to be 46.9 µM in assay [7] and 13.6 µM in [8].
In the case of `O=C(N/C=C/C=C/Sc1ccccc1)OCc1ccccc1`, the TGI is > 100 µM in assay [1]; 38.1 µM in [2]; 36.1 µM in assay [3]; 57 µM in assay [4]; 35.6 µM in [5]; 42.4 µM in [6]. Besides, the values for the TGI in [7] and in assay [8] were 64.7 µM and 39.5 µM, respectively.
`CCC(C)(C)[C@H](NC(=O)[C@H]1CCCCN1C)C(=O)N(C)[C@H](C[C@@H](OC(C)=O)c1nc(C(=O)N[C@@H](Cc2ccccc2)C[C@H](C)C(=O)O)cs1)C(C)C`: the GI50 in assay [1], in [9], in [2], in assay [3], in assay [4] and in assay [5] was < 0.00167 µM throughout. Further, the GI50 in [6] is < 0.00167 µM; in assay [7], 0.253 µM; in assay [8], > 16.7 µM. For the same compound, the TGI in [1], in assay [2], in [3], in assay [4], in assay [6] and in assay [7] was > 16.7 µM in each case. Also, the TGI in [8] is > 16.7 µM.
Consider `NC(CO)c1ccc(OCc2ccccc2)cc1` (stereo not drawn), for which the TGI is > 100 µM in assay [1]; > 100 µM in [2]; > 100 µM in assay [3]; > 100 µM in assay [4]; > 100 µM in [5]; 98.9 µM in assay [6]. Further, the TGI in [7] and in assay [8] was > 100 µM in each case.
Take `COC1=CC(=O)OC(/C=C(C)/C=C/C2=C(C)CCCC2(C)C)C1` (stereo not drawn): the TGI in [1], in assay [2], in assay [3], in assay [4], in [5] and in assay [6] was > 100 µM in each case. Moreover, the TGI in assay [7] and in assay [8] was > 100 µM each time.
In the case of `CN(C)c1ccc(/C=c2\sc3nnc(-c4cccnc4)n3c2=O)cc1`, the TGI in assay [1], in assay [2], in assay [3], in assay [4], in assay [5] and in [6] was > 100 µM in each case. The TGI in assay [7] and in [8] was > 100 µM throughout.
In the case of `N#Cc1c2ccccc2c2nnc3ccccc3n12`, the GI50 in assay [9] is 26.8 µM; in [2], 28 µM; in [3], 48.7 µM; in assay [10], 33.5 µM; in [4], 31.9 µM; in assay [6], 28.3 µM. Moreover, in assay [7], the GI50 was 31.7 µM. Besides, the TGI in assay [9], in assay [2], in [3], in [10], in assay [4] and in [6] was > 100 µM in each case. In addition, in assay [7], the TGI is > 100 µM.
In the case of `CCc1nc2ccccc2c(=O)n1/N=C(\N=Nc1ccc(Cl)cc1)c1ccccc1`, the TGI in assay [1] is > 100 µM; in assay [2] it was 64.5 µM; in assay [3], 34.7 µM; in assay [4], > 100 µM; in [5], > 75.8 µM; in assay [6], 40.1 µM. Moreover, the TGI in [7] was determined as 78.3 µM; in [8], 59.6 µM.
